Assay results from patent US20080031986A1 (Metaproteomics, LLC, priority 2005, published 2008).

What was measured:
COX-2 = details: Warner et al. 1999; cited from earlier work
3T3-L1 adipocytes = assay: Lipogenesis (Oil Red O / BODIPY) in 3T3-L1 adipocytes; type: cell-based, murine; details: for adipogenic response versus positive controls indomethacin and troglitazone: Day 0 to D6/7
Method: Prior to experiments, cells were cultured in DMEM containing 10% FBS-HI added 50 units penicillin/ml and 50 μg streptomycin/ml, and maintained in log phase prior to experimental setup. Cells were grown in a 5% CO2 humidified incubator at 37° C. Components of the pre-confluent medium included (1) 10% FBS/DMEM containing 4.5 g glucose/L; (2) 50 U/ml penicillin; and (3) 50 μg/ml streptomycin. Growth medium was made by adding 50 ml of heat inactivated FBS and 5 ml of penicillin/streptomycin to 500 ml DMEM. This medium was stored at 4° C. Before use, the medium was warmed to 37° C. in a water bath.
3T3-T1 cells were seeded at an initial density of 6×10^4 cells/cm^2 in 24-well plates. For two days, the cells were allowed grow to reach confluence. Following confluence, the cells were forced to differentiate into adipocytes by the addition of differentiation medium; this medium consisted of (1) 10% FBS/DMEM (high glucose); (2) 0.5 mM methylisobutylxanthine; (3) 0.5 μM dexamethasone and (4) 10 μg/ml insulin (MDI medium). After three days, the medium was changed to post-differentiation medium consisting of 10 μg/ml insulin in 10% FBS/DMEM.
Whenever fresh media were added, fresh test material was also added.
Monolayer cells were washed with PBS (phosphate buffered saline, Mediatech) and fixed with 10% formaldehyde for ten minutes. Fixed cells were stained with an Oil Red O working solution of three parts 0.6% Oil Red O/isopropanol stock solution and two parts water for one hour and the excess stain was washed once with water. The resulting stained oil droplets were extracted from the cells with isopropanol and quantified by spectrophotometric analysis at 540 nm (MEL312e BIO-KINETICS READER, Bio-Tek Instruments, Winooski, Vt.).
Briefly, media were removed and cells were washed once with non-sterile PBS. A stock 1000× BODIPY/DMSO solution was made by dissolving 1 mg BODIPY in 1 ml DMSO (1,000 μg BODIPY/ml). A working BODIPY solution was then made by adding 10 μl of the stock solution to 990 μl PBS for a final BODIPY concentration in the working solution of 0.01 μg/μl. One-hundred μl of this working solution (1 μg BODIPY) was added to each well of a 96-well microtiter plate. After 15 min on an orbital shaker (DS-500, VWR Scientific Products, South Plainfield, N.J.) at ambient temperature, the cells were washed with 100 μl PBS followed by the addition of 100 μl PBS for reading for spectrofluorometric determination of BODIPY incorporation into the cells. […]
Test materials were added in dimethyl sulfoxide at Day 0 of differentiation and every two days throughout the maturation phase (Day 6/7). […] Differentiated 3T3-L1 cells were stained with 0.2% Oil Red O. The resulting stained oil droplets were dissolved with isopropanol and quantified by spectrophotometric analysis at 530 nm.

[1] = system: TNFα-treated 3T3-L1 adipocytes; assay: Adiponectin secretion from TNFα-treated 3T3-L1 adipocytes; type: cell-based, murine; details: for maximum increase of adiponectin secretion over TNFα solvent control: 10 ng TNFα/ml
Method: 3T3-L1 cells were seeded at an initial density of 1×10^4 cells/cm^2 in 96-well plates. For two days, the cells were allowed grow to reach confluence. Following confluence, the cells were forced to differentiate into adipocytes by the addition of differentiation medium; this medium consisted of (1) 10% FBS/DMEM (high glucose); (2) 0.5 mM methylisobutylxanthine; (3) 0.5 μM dexamethasone and (4) 10 μg/ml insulin (MDI medium). From Day 3 through Day 5, the medium was changed to post-differentiation medium consisting of 10% FBS in DMEM. […] On Day 6, the supernatant medium was sampled for adiponectin determination.
Statistical Calculations and Interpretation—All assays were preformed in duplicate. […] Differences among the doses and test agents were determined using the Student's t-test without correction for multiple comparisons; the nominal five percent probability of a type I error was selected.

[2] = system: insulin-resistant 3T3-L1 adipocytes; assay: Adiponectin secretion from insulin-resistant 3T3-L1 adipocytes; type: cell-based, murine; details: slope of Hofstee plot
Method: 3T3-L1 cells were seeded at an initial density of 1×10^4 cells/cm^2 in 96-well plates. For two days, the cells were allowed grow to reach confluence. Following confluence, the cells were forced to differentiate into adipocytes by the addition of differentiation medium; this medium consisted of (1) 10% FBS/DMEM (high glucose); (2) 0.5 mM methylisobutylxanthine; (3) 0.5 μM dexamethasone and (4) 10 μg/ml insulin (MDI medium). From Day 3 through Day 5, the medium was changed to post-differentiation medium consisting of 10 μg/ml insulin in 10% FBS/DMEM.
Briefly, on Day 6, cells were maintained in serum-free media containing 0.5% bovine serum albumin (BSA) for three hours and then treated with 1 μg insulin/ml plus solvent or insulin plus test material. […] Twenty-four hours later, the supernatant medium was sampled for adiponectin determination.
Statistical Calculations and Interpretation—All assays were preformed in duplicate. […] Differences between the doses were determined using the student's t-test without correction for multiple comparisons; the nominal five percent probability of a type I error was selected.
Substituting {relative adiponectin secretion/[concentration]} for the independent variable v/[S] and {relative adiponectin secretion} for the dependant variable {v}, produced a relationship of the form y=mx+b. […]

DBA/J mice = assay: Collagen induced rheumatoid arthritis murine model; type: in vivo, mouse; details: 10 mg/kg, days 30-42
db/db mice = assay: Non-fasting serum glucose and insulin in db/db diabetic mice; type: in vivo, mouse; details: three daily doses by gavage
Method: The Model—Male, C57BLKS/J m^+/m^+Lepr^db (db/db) mice were used to assess the potential of the test materials to reduce fasting serum glucose or insulin concentrations.
Testing Procedure—Test substances were administered daily by gavage in 0.2% Tween-80. Serum was collected from the retroorbital sinus before the initial dose and ninety minutes after the third and final dose. Non-fasting serum glucose was determined enzymatically by the mutarotase/glucose oxidase method and serum insulin was determined by a mouse specific ELISA.

## CC(=O)Oc1ccccc1C(=O)O [Aspirin, aspirin]
COX-2
  published values for direct COX-2 inhibition: 1.4 to 50 µg/mL

## Beta acids
3T3-L1 adipocytes
  adipogenic response versus positive controls indomethacin and troglitazone: comparable to indomethacin and troglitazone

## Cc1c(C)c2c(c(C)c1O)CCC(C)(COc1ccc(CC3SC(=O)NC3=O)cc1)O2 (centres unmarked) [Troglitazone, troglitazone]
[1]
  maximum increase of adiponectin secretion over TNFα solvent control: 51%

## CC(C)CCC1=C(O)C(C(=O)C(C)C)=C(O)C(CCC(C)C)(CCC(C)C)C1=O [Hexahydro colupulone, hexahydrocolupulone]
[2]
  Test Material at Half Maximal Secretion: 3.2 µg/mL
3T3-L1 adipocytes
  adipogenic response versus positive controls indomethacin and troglitazone: failed to elicit a lipogenic response greater than the solvent controls

## CN(C)C(=N)N=C(N)N [metformin, reference compound]
3T3-L1 adipocytes; Oil Red O, Acacia samples 50 μg/ml
  lipogenic response / lipogenic index relative to solvent control: 0.79

## CCc1ccc(CCOc2ccc(CC3SC(=O)NC3=O)cc2)nc1 (centres unmarked) [Pioglitazone, pioglitazone]
[1]
  maximum increase of adiponectin secretion over TNFα solvent control: 80%
[1]; 1.0 μg/ml, indexed to TNFα control (Table 26)
  Adiponectin Index, Observed: 1.80

## C[C@]12C=CC(=O)C=C1CC[C@@H]1[C@@H]2[C@@H](O)C[C@@]2(C)[C@H]1CC[C@]2(O)C(=O)CO [prednisolone]
DBA/J mice
  arthritic index: Significant reductions

## COc1cc(O)c(CC=C(C)C)c(O)c1C(=O)/C=C/c1ccc(O)cc1 [Xanthohumol, xanthohumol]
db/db mice
  serum glucose or insulin: reduction in serum glucose with no effect on insulin
3T3-L1 adipocytes
  adipogenic response versus positive controls indomethacin and troglitazone: comparable to indomethacin and troglitazone
